Three molecules from US10041104B2, “Microfluidic device” (Astrego Diagnostics AB, priority 2014, dated 2018) can be followed below.

≈ marks a conversion by molar mass, not a printed value. Some results are limits rather than exact numbers.

The subject of assay [1] is ciprofloxacin resistant E. coli strain DA20859. The assay is described as follows: minimum inhibitory concentration (MIC). The assay is classed as cell-based. Particulars: Escherichia coli.
Assay [2] shares this test system. Put plainly: AST in microfluidic device, average growth rate response by phase contrast time lapse imaging (FIG. 18). It is filed as cell-based, Escherichia coli. The text has this:
The microfluidic device of the embodiments can be used for various applications. An example of such application is antibiotic susceptibility testing (AST). For example, the microfluidic device 1 shown in FIG. 10 can be used for this purpose. In such a case, the sample strain can be loaded from, for instance, the common second fluid port 33A using the first fluid ports 31A′, 31B′, 31C′ as output ports for excess cells and culture medium and the common third fluid port 51 as output port for culture medium and for sucking cells into the cell channels. In an example, during loading culture medium is flown from the common second fluid port 33C to the common second fluid port 33B to prevent contaminating the common second fluid port 33C. After cell loading culture medium preferably flows from the common second fluid port 33C using the first fluid ports 31A′, 31B′, 31C′ and the common third fluid port 51 as output ports. At this stage growth of the cells in the cell channels can be monitored for some time, 0 min to days, while imaging the cells in the different cell channels. The AST test starts by flowing different antibiotics or a same antibiotic but at different concentrations into the different sets 2A, 2B, 2C of cell channels using the first fluid ports 31A, 31B, 31C as input ports, while using the common second fluid ports 33A, 33B, 33C and the common third fluid port 51 as output ports. Susceptibility is monitored by the phenotypic response to antibiotic in the different cell channels. For example, it is possible to determine the average growth rate and the cell to cell distribution of growth rates just by monitoring the length extension in phase contrast using automatics images analysis routines. These measurements can be averaged over cells in many cell channels such that it is possible to determine minute phenotypic changes within a few minutes. Phenotypic changes can also be in morphological changes, such as the compaction of DNA or changes in membrane structure or in integrity. Some phenotypic changes are best studied by addition of test agents, such as 4′,6-diamidino-2-phenylindole (DAPI) and SYTOX® fluorescent stains, that can be monitored in a florescence channel.
The E. coli strain was exposed to (1) no drug marked with “x”, (2) erythromycin at 120 μg/ml marked with diamonds or (3) ciprofloxacin 10 μg/ml marked with circles. The time point 0 min corresponds to the start of the treatment. The curve corresponding to treatment with the drug (erythromycin) for which the strain is susceptible can be distinguished from the no treatment curve in <10 min. The curve corresponding to treatment with the drug for which the strain is susceptible can be distinguished from the curve corresponding to the drug (ciprofloxacin) for which the strain is resistant in <15 min.

Assay [3] has as its system erythromycin-resistant E. coli strain. The assay is described as follows: minimum inhibitory concentration (MIC). Particulars: Escherichia coli. It is filed as cell-based.
The subject of assay [4] is erythromycin-susceptible (non-resistant) E. coli strains. The assay is described as follows: minimum inhibitory concentration (MIC). As to conditions: Escherichia coli; two non-resistant E. coli strains (circles and diamonds in FIG. 17). It is filed as cell-based.
For assay [5], the system named is erythromycin-resistant and erythromycin-susceptible E. coli strains. Put plainly: AST in microfluidic device, average growth rate response (FIG. 17). As to conditions: 120 μg/ml erythromycin at time 0 min. The assay is classed as cell-based, Escherichia coli. The text has this: (§1) The microfluidic device of the embodiments can be used for various applications. An example of such application is antibiotic susceptibility testing (AST). For example, the microfluidic device 1 shown in FIG. 10 can be used for this purpose. In such a case, the sample strain can be loaded from, for instance, the common second fluid port 33A using the first fluid ports 31A′, 31B′, 31C′ as output ports for excess cells and culture medium and the common third fluid port 51 as output port for culture medium and for sucking cells into the cell channels. In an example, during loading culture medium is flown from the common second fluid port 33C to the common second fluid port 33B to prevent contaminating the common second fluid port 33C. After cell loading culture medium preferably flows from the common second fluid port 33C using the first fluid ports 31A′, 31B′, 31C′ and the common third fluid port 51 as output ports. At this stage growth of the cells in the cell channels can be monitored for some time, 0 min to days, while imaging the cells in the different cell channels. […] Susceptibility is monitored by the phenotypic response to antibiotic in the different cell channels. […] Some phenotypic changes are best studied by addition of test agents, such as 4′,6-diamidino-2-phenylindole (DAPI) and SYTOX® fluorescent stains, that can be monitored in a florescence channel.

The subject of assay [6] is chloramphenicol-susceptible E. coli strain. Put plainly: minimum inhibitory concentration (MIC). The assay is classed as cell-based. Particulars: Escherichia coli.
Assay [7] relates to chloramphenicol-resistant E. coli strain. Put plainly: minimum inhibitory concentration (MIC). It is filed as cell-based. As to conditions: Escherichia coli.
Assay [8] has as its system chloramphenicol-susceptible and chloramphenicol-resistant E. coli strains. Put plainly: AST test in microfluidic device, phase contrast images (FIG. 15). The assay is classed as cell-based, Escherichia coli. Particulars: both strains exposed to 6 μg/ml chloramphenicol; images taken 15 min apart.
Source text: as §1, with “channel. […]” for “channel.”

On to `O=C(O)c1cn(C2CC2)c2cc(N3CCNCC3)c(F)cc2c1=O` [ciprofloxacin], for which, in assay [1], the MIC (commonly the least concentration at which growth counts as inhibited) is around 30 µg/mL (≈ 90.5 µM). For the same molecule, the “susceptibility of the strain to the drug” value in assay [2] was “resistant”.

As for `CC[C@H]1OC(=O)[C@H](C)[C@@H](O[C@H]2C[C@@](C)(OC)[C@@H](O)[C@H](C)O2)[C@H](C)[C@@H](O[C@@H]2O[C@H](C)C[C@H](N(C)C)[C@H]2O)[C@](C)(O)C[C@@H](C)C(=O)[C@H](C)[C@@H](O)[C@]1(C)O` [erythromycin], the minimal inhibitory concentration (MIC) in assay [3] is 256 µg/mL (≈ 349 µM); in assay [4], around 12 µg/mL (≈ 16.4 µM). In addition, the “time in which resistant strain can be distinguished from susceptible strains (average growth rate)” value in assay [5] is “less than 20 min”. Further, the “susceptibility of the strain to the drug” value in assay [2] was “susceptible”. Besides, in assay [2] (erythromycin 120 μg/ml), the “time in which treatment curve can be distinguished from no treatment curve (average growth rate)” value was below 10 min. For the same molecule, the “time in which curve of drug for which strain is susceptible can be distinguished from curve of drug for which strain is resistant” value in assay [2] (erythromycin 120 μg/ml versus ciprofloxacin 10 μg/ml) is below 15 min.

Regarding `O=C(N[C@H](CO)[C@H](O)c1ccc([N+](=O)[O-])cc1)C(Cl)Cl` [chloramphenicol], the MIC in assay [6] is around 4 µg/mL (≈ 12.4 µM); in assay [7], above 12 µg/mL. In assay [8], the “growth of susceptible strain compared with resistant strain” value was “grown much less than the chloramphenicol-resistant strain”.
